Laboratory results published in patent US20180133327A1, “Cell Penetrating Peptides and Complexes Comprising the Same” (Amal Therapeutics SA, priority 2015, published 2018).

These sequences were tested on human MART1-specific CD8 T cells (assay: In vitro epitope presentation (MHC I) assay by human dendritic cells). Conditions: human monocyte-derived DCs loaded with 1 μM Zxx-MART1 for 4 h; intracellular staining for CD107, IFN-γ and TNF-α.
Format: cell-based
Protocol: Human monocyte-derived DCs were loaded with 1 μM of scramble-MART1, Z13-MART1, Z14-MART1, Z15-MART1 or Z18-MART1 for 4 h, wash and then incubated o.n. at 37° C. Specific TCR-transfected T cells were then added to DCs and incubated for 5 h with monensin and brefeldinA before intracellular FACS staining for CD107, IFN-γ and TNF-α.
In order to assess the capacity of the ZEBRA CPP truncations to promote epitope presentation by human DCs, the following constructs (Z13-MART1, Z14-MART1, Z15-MART1 and Z18-MART1, with each of the Z13, Z14, Z15 and Z18 CPP conjugated to the HLA-A2 epitope of the tumor associated antigen (TAA) MART1)) were synthesized:
These constructs (Z13, Z14, Z15, and Z18 CPPs conjugated to the HLA-A2 epitope of the tumor associated antigen (TAA) MART1) were assessed for their capacity to promote epitope presentation on MHC class I by human DCs. To this purpose, DCs from an HLA-A2+ donor were prepared from elutriated monocytes, cultured in CelIGro DC medium (CellGenix, Freiburg, Germany) with granulocyte-macrophage colony-stimulating factor (GM-CSF; 2500 U/ml) (Leucomax; Schering-Plough, Kenilworth, N.J.) and interleukin-4 (IL-4; 1000 U/ml) (CellGenix). The immature DCs were matured with cytokines: IL-1β (10 ng/ml), IL-6 (1000 U/ml), tumor necrosis factor α (TNFα; 10 ng/ml) (all from CellGenix) and prostaglandin E2 (1 μg/ml) (Sigma-Aldrich). DCs were rested in CellGro DC medium for 2 hours and loaded with 1 μM Scramble-MART1, Z13-MART1, Z14-MART1, Z15-MART-1 or Z18-MART1 for 4 hrs at 37° C. before being washed once and plated at 300 000 cells per well in round-bottomed 96-well plates. Non-peptide loaded DCs were used as a negative control. T cells were expanded from peripheral blood mononuclear cells using Dynabeads ClinExVivo CD3/CD28 (Life Technologies, Oslo, Norway). Expanded T cells (day 10 post activation) were transfected with the DMFS TCR specific for MART1 by mRNA electroporation. T cells were co-incubated with DCs at a ratio of 1:2 for 5 hours in the presence of GolgiPlug and GolgiStop (both BD Biosciences) before intracellular staining was performed using the following antibodies after FcR blocking; CD4 (RPAT4), CD8 (RPAT8), CD107a (H4A3) (BD Biosciences), IFN-γ (4S.B3) and TNF-α (MAb11) (BD Biosciences), all from eBioscience except where noted. Fixation and permabilization was performed using the PerFix kit from Beckman Coulter according to manufacturer's instructions. Cells were analysed using an LSR II flow cytometer (BD Biosciences) and results were processed with Kaluza (Beckman Coulter) software. All conditions were tested in duplicate, and the experiment was repeated up to three times.
With “KRYKNRVASRKSRAKFK (CPP Z15) [ZEBRA CPP truncation]” the “stimulation of human MART1-specific CD8 T cells” value (shortened to “stimulation”) was “particularly efficacious”. With REVAAAKSSENDRLRLLLK [Z18] the “stimulation” value was “markedly less efficient”. KRYKNRVASRKSRAKFKQLLQHYREVAAAK [Z14] was tested, and the “stimulation” value was “particularly efficacious”. In the case of “KRYKNRVASRKSRAKFKQLLQHYREVAAAKSSENDRLRLLLK [Z13]”, the “stimulation” value is reported as “particularly efficacious”.
